Test results as given in patent US8709420B2 (GlaxoSmithKline Intellectual Property Limited, priority 2010, dated 2014).
In brackets after ≈: the same amount, converted by molar mass. Several values for one entry are separate records, joined by “and”; a condition that tells them apart may be missing. Identical values can stand only once.

Experiments:
HIF-1 alpha = assay: Immunohistochemistry of xenograft tumors, HIF-1 alpha; type: in vivo, NOD/SCID mice; details: NB12 xenograft model
Protocol: Formalin fixed tissues were paraffin embedded and sections cut at 7 um. […] The primary antibodies were anti-HIF-1 alpha (#NB100-131, Novus Biologicals, dilution 1:3000), HIF-2 alpha (#NB100-122, Novus Biologicals, dilution 1:100), Oct-4 (#2890S, Cell Signalling, dilution 1:100), von Willebrand factor (#A0082; DakoCytomation, Glostrup, Denmark). After the primary antibody treatment, all the slides were washed three times with PBS and incubated with broad spectrum poly-horse radish peroxidase (HRP) conjugate […] secondary antibody (87-9663, Invitrogen) for 1 h at room temperature. After washing three times with PBS, slides were stained with diaminobenzidine (DAB) and counterstained with hematoxylin. Microscopic images of six fields of high vascular density were digitally captured for vWF-stained slides, while for HIF-1 alpha, HIF-2 alpha and Oct-4 stained slides, the images of six randomly selected areas were captured. The pixel values for stained areas were quantified using ImageJ software. Tumor angiogenesis was quantified as the number of pixels of regions positive for vWF.

[1] = test system: circulating endothelial progenitor cells (CEPs); assay: CEP/CEC flow cytometry in SK-N-BE(2) xenograft model; type: in vivo, mouse; details: after one week treatment
Protocol: Approximately 160 μl of mouse blood was collected in K2-EDTA tubes by saphenous vein puncture from animals of the SK-N-BE(2) xenograft model (after one week treatment) and BE(2)-c metastatic model (after one week and four weeks treatment). Blood was immediately stored at 4° C. until analysis. The CEP/CECs were measured by flow cytometry within 48 hrs of blood collection as previously described. CEPs were defined as CD45−, VEGFR-2+, CD117+, and CD13+, while CECs were defined as CD45−, VEGFR-2+, CD117−, and CD13+. The absolute number of CEPs was calculated as the percentage of events collected in CEP enumeration gates multiplied by the total white blood cell (WBC) count.

[2] = previously reported; cited from earlier work
HUVEC = assay: In-vitro cytotoxicity, Alamar Blue cell viability; type: cell-based; details: Homo sapiens, 72 h treatment, read-out: IC50, reduction in viability of HUVEC cells
[3] = test system: BE(2)-c neuroblastoma cell line; assay: In-vitro cytotoxicity, Alamar Blue cell viability; type: cell-based; details: Homo sapiens, topotecan alone, 72 h
Description: (§1) SK-N-BE(2) (MYCN amplified) and SH-SY5Y (non-MYCN amplified neuroblastoma cell lines) were obtained from American Type Culture Collection (ATCC) (Manassas, Va.); BE(2)-c sub-clone of SK-N-BE(2) was obtained from Dr. Michelle Haber (Children's Cancer Institute for Medical Research, Lowry Cancer Research Centre, Randwick, Australia); Human Umbilical Vein Endothelial Cells (HUVECs) were obtained from Dr. Herman Yeger (The Hospital for Sick Children, Toronto, Ontario, Canada) and Tumor Initiating (TIC) cell lines NB12 and NB88, were obtained from Dr. David Kaplan (The Hospital for Sick Children, Toronto, Ontario, Canada). TICs NB12 and NB88 were isolated from the bone marrow metastases of relapsed high-risk neuroblastoma patients. Neuroblastoma cell lines SK-N-BE(2) and SH-SY5Y were grown in alpha-MEM containing 10% fetal bovine serum and 1% antibiotic mixture in humidified atmosphere at 37° C. with 5% CO2. NB12 and NB 88 were cultured as described previously.
(§2) Cell viability was determined by Alamar Blue assay. Alamar blue (10% of total volume was added to each well three hours prior to fluorometric detection). Fluorometric detection was performed using the SPECTRAmax gemini Spectrophotometer at excitation wavelength of 540 nm and emission wavelength of 590 nm.

[4] = test system: NB12 tumor initiating cell line; assay: In-vitro cytotoxicity, Alamar Blue cell viability; type: cell-based; details: topotecan alone, 72 h
Description: as §1, §2

[5] = test system: NB88 tumor initiating cell line; assay: In-vitro cytotoxicity, Alamar Blue cell viability; type: cell-based; details: topotecan alone, 72 h
Description: as §1, §2

[6] = test system: BE(2)-c experimental metastases; assay: BE(2)-c metastatic tumor model; type: in vivo, NOD/SCID mice
Protocol: 1×10^6 BE(2)-c cells were injected into lateral tail veins of NOD/SCID mice to generate ‘experimental’ metastases. […] The treatment was continued until death or end point.
In the metastatic model, the animals' organs (liver, kidney, adrenal, and femur) were removed after the death/sacrifice of animals, and were fixed in 10% formalin and paraffin-embedded. These paraffin-embedded sections were then stained with hematoxylin and eosin and microscopically examined.

KHOS xenograft = assay: KHOS osteosarcoma mouse xenograft model; type: in vivo, NOD/SCID mice
[7] = test system: circulating endothelial cells (CECs), CEPs, WBC; assay: Viable CECs, CEPs and WBC in KHOS osteosarcoma model; type: in vivo, NOD/SCID mice; details: 21 days treatment
Protocol: Procedure: Approximately 160 μl of blood was sampled in heparinized microtubes at 21st day of treatment by saphenous vein puncturing. These blood samples were stored at 4° C. until analysis. CEC/CEP measurement was done within 48 h of blood collection by flow cytometry.

[8] = test system: KHOS xenograft tumor microvasculature; assay: Microvessel density by von Willebrand factor staining of KHOS xenografts; type: in vivo, NOD/SCID mice; details: after 28 days treatment
Protocol: Procedure: Formalin fixed tissues were paraffin embedded and sections cut at 7 um. […] The primary antibody was von Willebrand factor (#A0082; DakoCytomation, Glostrup, Denmark). After the primary antibody treatment, the slides were washed three times with PBS and incubated with broad spectrum poly-horse radish peroxidase (HRP) conjugate secondary antibody (87-9663, Invitrogen) for 1 h at room temperature. After washing three times with PBS, slides were stained with diaminobenzidine (DAB) and counterstained with hematoxylin. Microscopic images of six fields of high vascular density were digitally captured. The pixel values for stained areas were quantified using ImageJ software. Tumor angiogenesis was quantified as the number of pixels of regions positive for von Willebrand Factor.

Cc1ccc(Nc2nccc(N(C)c3ccc4c(C)n(C)nc4c3)n2)cc1S(N)(=O)=O [pazopanib, 5-[[4-[(2,3-dimethyl-2H-indazol-6-yl)methylamino]-2-pyrimidinyl]amino]-2-methylbenzenesulfonamide]
HIF-1 alpha expression (HIF-1 alpha): increase
mean values of CEPs compared to control [1]: statistically significant difference
optimal plasma concentration of pazopanib effectiveness [2]: ≈ 18 μg/ml and 40 μM

CC[C@@]1(O)C(=O)OCc2c1cc1n(c2=O)Cc2cc3c(CN(C)C)c(O)ccc3nc2-1 [topotecan]
IC50 (HUVEC): 0.00487 µg/mL (≈ 0.0116 µM)
IC50 [3]: 0.0456 µg/mL (≈ 0.108 µM)
IC50 [4]: 0.0631 µg/mL (≈ 0.15 µM)
IC50 [5]: 0.0039 µg/mL (≈ 0.00925 µM)
survival span, TP versus PZ treated group ([6]; P<0.05): higher
histology of organs: tumors in liver and kidney ([6]; at time of death or end point): macroscopically detectable tumors in liver and kidney
mean survival span ([6]; daily oral gavage from 14 days after i.v. cell injection, TP 1.0 mg/Kg, TP+PZ plus 150 mg/Kg pazopanib): 52.4 days
tumor growth rate (KHOS xenograft; 27 days daily oral, LDM topotecan 1.0 mg/kg, combination 1.0 mg/Kg topotecan and 150 mg/Kg pazopanib): delayed the tumor growth rate
tumor growth rate (KHOS xenograft; Pulse topotecan 15 mg/Kg, 27 days): delayed the tumor growth rate
tumor weights, Pulse versus LDM topotecan (KHOS xenograft; after 27 days treatment): No significant differences
CEP, significance versus Pulse [7]: * (* P < 0.05)
WBC, significance versus Pulse [7]: * (* P < 0.05)
White Blood Cell (WBC) levels compared to pulse TP [7]: significantly lower
viable CEP levels compared to pulse TP [7]: significantly lower
levels of viable CECs versus control ([7]; LDM TP 1.0 mg/kg, TP+PZ): significantly reduced
levels of viable CEPs versus control ([7]; LDM TP 1.0 mg/kg, TP+PZ): significantly reduced
levels of viable CECs versus control ([7]; Pulse TP 15 mg/Kg): significantly reduced
levels of viable CEPs versus control ([7]; Pulse TP 15 mg/Kg): significantly reduced
CEC, significance versus Control ([7]; Pulse topotecan 15 mg/Kg): * (* P < 0.05)
CEP, significance versus Control ([7]; Pulse topotecan 15 mg/Kg): * (* P < 0.05)
CEC, significance versus Control ([7]; TP (LDM 1.0 mg/kg), TP + PZ): ** (** P < 0.005)
CEP, significance versus Control ([7]; TP (LDM 1.0 mg/kg), TP + PZ): ** (** P < 0.005)
WBC, significance versus Control ([7]; TP (LDM 1.0 mg/kg), TP + PZ): * (* P < 0.05)
microvessel densities versus control ([8]; LDM TP, TP+PZ): significantly lower
microvessel densities versus control ([8]; Pulse TP): significantly lower
